Assay results from paper PMC10935062 (Acta Pharmaceutica Sinica. B, 2023).

Experiment: Water solubility
Format: physicochemical

Question: Which water solubility does the source give for `NC(=O)c1ccc(C(=O)NOCc2ccc(Sc3ccc(N)cc3)c(C(F)(F)F)c2)cc1` [compound 11p] here?
Answer: superior water solubility
